The record followed here is patent US7998924B2, “Compounds that bind to p185 and methods of using the same” (The Trustees of The University of Pennsylvania, priority 2001, dated 2011).

pKd: −log10 of the molar value. “Also recorded” adds a separate entry of the source. Positions of bridges follow the written chain, without caps; N, C: chain ends. Residues, ends and D or L forms follow the SMILES beside them.

The pKd is −log10 of the Kd, conventionally taken in molar units. As usually defined, the koff is a measure of how fast the partners let go of each other. The kon is a measure of how fast the partners come together. As usually defined, the solubility is how much of the substance goes into solution per volume.

For data set [1], the target named is T1, HER2 receptor (Homo sapiens, UniProt P04626).
T1 construct: Recombinant purified HER2 receptor composed of the ectodomain of HER2 fused to the Fc of human IgG; purchased Xcyte Therapeutics, Seattle, Wash; (provided by Dr. Che Law; a gift, not a catalogue product)
The experiment in a line: Biacore (surface plasmon resonance) binding of peptides to immobilized HER2. To be noted: for pKd / koff / kon: Biacore, immobilized HER2, 25° C.; for pKd: read-out: binding to HER2 KD; for koff: read-out: binding to HER2 koff; for kon: read-out: binding to HER2 kon. The source says:
Binding of AHNP has been studies by means of surface plasmon resonance (Biacore) technology. In Biacore experiments, one of the interacting molecules (termed the ligand) is immobilized on the sensor surface, and the other interactant (termed the analyte) is continuously flown over that surface in a micro-flow cell. The interaction between the ligand and the analyte are monitored using a light source that is reflected at the immobilized chip. Binding of the analyte to the immobilized ligand changes the resonance angle of the reflected light due to changes in the refractive index of the surface. The response is plotted in real time in the form of sensorgram curves. The advantage with this approach is its sensitivity, ease of use, and ability to perform experiments with few microgram quantities of proteins and peptides. In addition, the kinetic binding studies reveal association and disassociation rates of the analyte which may be more relevant for understanding the pharmacokinetics of drug-receptor interactions.
Binding experiments were performed with the surface plasmon resonance based biosensor instrument Biacore 3000 (Biacore AB, Uppsala, Sweden) at 25° C. Recombinant purified HER2 receptor composed of the ectodomain of HER2 fused to the Fc of human IgG was provided by Dr. Che Law, Xcyte Therapeutics, Seattle, Wash. Immobilization of HER2 in the sensor surface was performed following the standard amine coupling procedure according to manufacturer's instructions. Briefly, 35 pit of a solution containing 0.2M N-ethyl-N-(dimethylaminopropyl) carbodiimide (EDC) and 0.05 M N-hydroxysuccinimide (NHS) were injected at a flow rate of 5 μL/min to activate carboxyl groups on the sensor chip surface. HER2 (40 ng/mL in 10 mM NaOAc buffer, pH 5.0) was flowed over the chip surface at a flow rate of 20 μL/min until the desired level bound protein was reached. Unreacted protein was washed out and unreacted activated groups were blocked by the injection of 35 μL of 1 M ethanolamine at 5 μL/min. […] A reference surface was generated simultaneously under the same conditions but without HER2 injection and used as a blank to correct for instrument and buffer artifacts. Peptides were injected at variable concentrations at 20 μL/min flow rate and binding to the HER2 receptor immobilized on the chip was monitored in real time. Each sensorgram consists of an association phase (first 240 s), reflecting binding of the injected peptide to the receptor, followed by a dissociation phase (300 s), during which the running buffer is passed over the chip and the bound peptide is being washed off the receptor surface.

Data set [2] is described as follows: Peptide solubility in PBS buffer at 1 mg/mL. The note with it: pH 7.4, 1 mg/mL. Format: physicochemical. The protocol: These peptides could be readily dissolved in the PBS buffer, pH 7.4, at 1 mg/mL concentration without adjustment of pH.

T1 sequence (P04626 23-652 limits assumed): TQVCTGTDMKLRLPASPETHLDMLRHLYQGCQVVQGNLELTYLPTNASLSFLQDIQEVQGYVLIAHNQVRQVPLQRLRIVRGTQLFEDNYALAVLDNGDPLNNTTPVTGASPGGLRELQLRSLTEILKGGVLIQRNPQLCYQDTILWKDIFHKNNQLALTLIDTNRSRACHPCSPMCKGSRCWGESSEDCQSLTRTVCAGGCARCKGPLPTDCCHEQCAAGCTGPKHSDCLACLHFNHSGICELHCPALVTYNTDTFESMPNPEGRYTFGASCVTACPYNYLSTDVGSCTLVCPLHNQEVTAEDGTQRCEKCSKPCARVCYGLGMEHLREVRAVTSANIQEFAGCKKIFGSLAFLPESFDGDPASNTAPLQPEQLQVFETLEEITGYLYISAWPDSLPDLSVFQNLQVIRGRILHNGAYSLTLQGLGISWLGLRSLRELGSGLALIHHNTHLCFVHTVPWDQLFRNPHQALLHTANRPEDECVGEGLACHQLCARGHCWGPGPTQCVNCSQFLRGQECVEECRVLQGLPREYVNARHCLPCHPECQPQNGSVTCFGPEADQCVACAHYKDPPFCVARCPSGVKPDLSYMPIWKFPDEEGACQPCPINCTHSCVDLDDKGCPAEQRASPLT

Consider `CSCC[C@H](NC(=O)[C@@H](Cc1ccc(O)cc1)NC(=O)[C@@H]1CSSC[C@H](NC(=O)[C@H](N)Cc2ccccc2)C(=O)N[C@@H](CC(=O)O)C(=O)NCC(=O)N[C@@H](Cc2ccccc2)C(=O)N[C@@H](Cc2ccc(O)cc2)C(=O)N[C@@H](C)C(=O)N1)C(=O)N[C@@H](CC(=O)O)C(=O)N[C@H](C(N)=O)C(C)C` [Peptide 4], for which, in data set [1], the negative-log Kd (pKd) was 6.46, the dissociation rate constant (koff) turned out to be 0.000603 s⁻¹ and the on-rate constant (kon) worked out at 1720 M⁻¹ s⁻¹. In addition, in data set [2], the solubility is over 1000 µg/mL and the “solubility (in words)” value is “much higher solubility”.
`CSCC[C@H](NC(=O)[C@H](Cc1ccc(O)cc1)NC(=O)[C@@H]1CSSC[C@H](NC(=O)[C@@H](N)Cc2ccccc2)C(=O)N[C@@H](CC(=O)O)C(=O)NCC(=O)N[C@@H](Cc2ccccc2)C(=O)N[C@@H](Cc2ccc(O)cc2)C(=O)N[C@@H](C)C(=O)N1)C(=O)N[C@@H](CC(=O)O)C(=O)N[C@H](C(=O)N[C@@H](CCCCN)C(N)=O)C(C)C` [Peptide 5] (H-FCDGFYACYMDVK-NH2; disulfide 2-8): the pKd in data set [1] was 6.08. In addition, the “lower receptor affinity than 7” value in data set [1] (relative to peptide 7) stood at 14%. Moreover, in data set [2], the solubility is under 1000 µg/mL and the “solubility (in words)” value is listed as “no improvement in solubility”.
As to `CC(C)[C@H](NC(=O)[C@H](CC(=O)O)NC(=O)[C@H](CCCCN)NC(=O)[C@H](Cc1ccc(O)cc1)NC(=O)[C@@H]1CSSC[C@H](NC(=O)[C@@H](N)Cc2ccccc2)C(=O)N[C@@H](CC(=O)O)C(=O)NCC(=O)N[C@@H](Cc2ccccc2)C(=O)N[C@@H](Cc2ccc(O)cc2)C(=O)N[C@@H](C)C(=O)N1)C(=O)O` [Peptide 6] (H-FCDGFYACYKDV-OH; disulfide 2-8; N-terminus assumed), in data set [1], the negative logarithm of the Kd (pKd) is 5.24, the off-rate constant (koff) is 0.00125 s⁻¹ and the kon was determined as 219 M⁻¹ s⁻¹. For the same compound, the “fold decrease in binding affinity for HER2” value in data set [1] (Lys-containing analogues vs parent peptide) amounted to 8.8 fold. The “decrease in binding affinity” value in data set [1] (Met replaced with Lys) was “about 1 order of magnitude”. Further, in data set [2], the solubility was over 1000 µg/mL and the “solubility (in words)” value is on record as “much higher solubility”.
Regarding `CSCC[C@H](NC(=O)[C@H](Cc1ccc(O)cc1)NC(=O)[C@@H]1CSSC[C@H](NC(=O)[C@H](Cc2ccccc2)NC(=O)CN)C(=O)N[C@@H](CC(=O)O)C(=O)NCC(=O)N[C@@H](Cc2ccccc2)C(=O)N[C@@H](Cc2ccc(O)cc2)C(=O)N[C@@H](C)C(=O)N1)C(=O)N[C@@H](CC(=O)O)C(=O)N[C@H](C(=O)O)C(C)C` [Peptide 7] (H-GFCDGFYACYMDV-OH; disulfide 3-9), in data set [1], the pKd is 6.14, the off-rate constant (koff) was 0.000808 s⁻¹ and the on-rate constant (kon) was determined as 1110 M⁻¹ s⁻¹. Besides, in data set [2], the solubility is over 1000 µg/mL and the “solubility (in words)” value is “increased solubility; also recorded: good solubility”.
Turning to `CSCC[C@H](NC(=O)[C@H](Cc1ccc(O)cc1)NC(=O)[C@@H]1CSSC[C@H](NC(=O)[C@@H](N)Cc2ccccc2)C(=O)NCC(=O)N[C@@H](CC(=O)O)C(=O)NCC(=O)N[C@@H](Cc2ccccc2)C(=O)N[C@@H](Cc2ccc(O)cc2)C(=O)N[C@@H](C)C(=O)N1)C(=O)N[C@@H](CC(=O)O)C(=O)N[C@H](C(=O)O)C(C)C` [Peptide 8] (H-FCGDGFYACYMDV-OH; disulfide 2-9; N-terminus assumed), in data set [1], the koff was found to be 0.000701 s⁻¹ and the kon is 922 M⁻¹ s⁻¹. Also, in data set [2], the solubility was over 1000 µg/mL and the “solubility (in words)” value is listed as “much higher solubility”.
